# Tests used:
# Liver microsomes [1] = test: Metabolic stability in human liver microsomes assessed as compound remaining; format: ADME, Microsome; note: time not given here
# [2] = Solubility of the compound; format: physicochemical
# Glucocorticoid receptor = target: T1, Glucocorticoid receptor (Homo sapiens, UniProt P04150); test: Antagonist activity at glucocorticoid receptor LBD expressed in human HUH7 cells coexpressing GAL4 by luciferase reporter gene assay; format: functional, cell-based, Huh-7
# T1 sequence (P04150 whole entry): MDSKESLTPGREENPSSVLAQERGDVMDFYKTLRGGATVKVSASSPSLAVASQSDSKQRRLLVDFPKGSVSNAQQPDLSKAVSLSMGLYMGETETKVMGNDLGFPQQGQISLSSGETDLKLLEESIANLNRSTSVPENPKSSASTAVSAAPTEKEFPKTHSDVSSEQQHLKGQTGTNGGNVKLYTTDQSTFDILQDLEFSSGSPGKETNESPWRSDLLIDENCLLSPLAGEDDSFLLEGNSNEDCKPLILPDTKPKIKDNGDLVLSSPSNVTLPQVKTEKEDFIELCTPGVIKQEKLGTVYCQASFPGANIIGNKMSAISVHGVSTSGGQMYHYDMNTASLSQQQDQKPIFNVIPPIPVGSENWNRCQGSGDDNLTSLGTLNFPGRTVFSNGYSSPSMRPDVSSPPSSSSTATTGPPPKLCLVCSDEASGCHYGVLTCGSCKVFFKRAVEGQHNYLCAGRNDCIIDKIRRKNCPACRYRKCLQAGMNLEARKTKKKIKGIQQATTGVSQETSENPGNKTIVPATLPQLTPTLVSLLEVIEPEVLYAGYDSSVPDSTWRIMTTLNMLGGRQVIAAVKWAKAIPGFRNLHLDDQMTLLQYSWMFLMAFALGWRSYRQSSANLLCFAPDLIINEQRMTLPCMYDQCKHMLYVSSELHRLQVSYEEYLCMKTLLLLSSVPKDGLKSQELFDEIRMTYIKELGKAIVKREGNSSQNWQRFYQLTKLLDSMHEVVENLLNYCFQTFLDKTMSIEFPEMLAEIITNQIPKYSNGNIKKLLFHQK
# Liver microsomes [3] = test: Metabolic stability in rat liver microsomes assessed as compound remaining; format: ADME, Microsome; note: time not given here
# Androgen receptor = target: T2, Androgen receptor (Homo sapiens, UniProt P10275); test: Antagonist activity at androgen receptor LBD expressed in human HUH7 cells coexpressing GAL4 by luciferase reporter gene assay; format: functional, cell-based, Huh-7
# T2 sequence (P10275 whole entry): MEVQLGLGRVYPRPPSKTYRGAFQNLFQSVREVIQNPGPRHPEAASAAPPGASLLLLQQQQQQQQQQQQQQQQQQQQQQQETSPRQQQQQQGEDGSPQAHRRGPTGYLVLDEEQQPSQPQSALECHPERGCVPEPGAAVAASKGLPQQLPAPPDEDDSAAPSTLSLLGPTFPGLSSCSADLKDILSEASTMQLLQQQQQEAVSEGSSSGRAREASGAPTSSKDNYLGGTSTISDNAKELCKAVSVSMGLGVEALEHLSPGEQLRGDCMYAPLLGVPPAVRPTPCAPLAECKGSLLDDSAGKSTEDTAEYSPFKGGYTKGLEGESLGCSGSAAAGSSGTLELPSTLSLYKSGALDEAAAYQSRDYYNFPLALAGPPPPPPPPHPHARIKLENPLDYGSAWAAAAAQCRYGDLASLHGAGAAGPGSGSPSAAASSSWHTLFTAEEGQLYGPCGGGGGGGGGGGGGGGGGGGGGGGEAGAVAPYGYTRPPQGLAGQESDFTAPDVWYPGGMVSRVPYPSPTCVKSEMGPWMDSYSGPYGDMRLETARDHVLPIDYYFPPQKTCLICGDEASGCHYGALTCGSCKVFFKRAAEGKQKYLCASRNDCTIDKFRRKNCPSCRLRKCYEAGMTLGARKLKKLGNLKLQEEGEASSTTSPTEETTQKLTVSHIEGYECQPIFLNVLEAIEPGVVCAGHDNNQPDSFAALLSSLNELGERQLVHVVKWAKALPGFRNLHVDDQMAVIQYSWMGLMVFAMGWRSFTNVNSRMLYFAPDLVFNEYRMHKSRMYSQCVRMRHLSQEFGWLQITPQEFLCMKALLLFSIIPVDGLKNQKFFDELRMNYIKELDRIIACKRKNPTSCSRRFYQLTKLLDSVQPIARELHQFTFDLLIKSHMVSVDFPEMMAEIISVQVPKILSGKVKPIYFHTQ
# Progesterone receptor = target: T3, Progesterone receptor (Homo sapiens, UniProt P06401); test: Antagonist activity at progesterone receptor LBD expressed in human HUH7 cells coexpressing GAL4 by luciferase reporter gene assay; format: functional, cell-based, Huh-7
# T3 sequence (P06401 whole entry): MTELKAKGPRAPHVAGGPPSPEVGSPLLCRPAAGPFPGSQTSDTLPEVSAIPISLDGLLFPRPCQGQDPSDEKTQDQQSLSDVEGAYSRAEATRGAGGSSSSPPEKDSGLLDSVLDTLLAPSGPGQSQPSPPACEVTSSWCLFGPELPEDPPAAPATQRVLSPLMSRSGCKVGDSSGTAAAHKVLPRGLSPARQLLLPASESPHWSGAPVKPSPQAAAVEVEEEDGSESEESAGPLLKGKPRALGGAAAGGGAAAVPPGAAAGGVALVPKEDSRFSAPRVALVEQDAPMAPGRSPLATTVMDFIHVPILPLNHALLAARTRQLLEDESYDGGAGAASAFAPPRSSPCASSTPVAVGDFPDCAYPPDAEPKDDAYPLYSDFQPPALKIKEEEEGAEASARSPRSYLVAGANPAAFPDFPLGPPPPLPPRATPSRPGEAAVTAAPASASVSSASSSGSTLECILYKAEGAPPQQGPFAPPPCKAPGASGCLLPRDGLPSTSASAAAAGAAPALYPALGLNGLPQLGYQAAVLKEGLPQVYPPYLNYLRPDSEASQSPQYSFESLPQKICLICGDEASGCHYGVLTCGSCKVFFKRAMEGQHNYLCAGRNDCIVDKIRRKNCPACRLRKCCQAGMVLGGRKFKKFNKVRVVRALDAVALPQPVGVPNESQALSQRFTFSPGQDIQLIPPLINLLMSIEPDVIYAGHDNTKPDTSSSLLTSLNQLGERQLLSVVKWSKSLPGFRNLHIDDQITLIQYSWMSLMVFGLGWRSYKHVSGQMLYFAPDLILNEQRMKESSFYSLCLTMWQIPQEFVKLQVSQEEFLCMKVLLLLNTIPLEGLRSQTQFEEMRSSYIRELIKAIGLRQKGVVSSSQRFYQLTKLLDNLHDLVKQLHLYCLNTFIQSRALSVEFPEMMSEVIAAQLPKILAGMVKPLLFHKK
# [4] = target: T4, Mineralocorticoid receptor (Homo sapiens, UniProt P08235)
# T4 sequence (P08235 whole entry): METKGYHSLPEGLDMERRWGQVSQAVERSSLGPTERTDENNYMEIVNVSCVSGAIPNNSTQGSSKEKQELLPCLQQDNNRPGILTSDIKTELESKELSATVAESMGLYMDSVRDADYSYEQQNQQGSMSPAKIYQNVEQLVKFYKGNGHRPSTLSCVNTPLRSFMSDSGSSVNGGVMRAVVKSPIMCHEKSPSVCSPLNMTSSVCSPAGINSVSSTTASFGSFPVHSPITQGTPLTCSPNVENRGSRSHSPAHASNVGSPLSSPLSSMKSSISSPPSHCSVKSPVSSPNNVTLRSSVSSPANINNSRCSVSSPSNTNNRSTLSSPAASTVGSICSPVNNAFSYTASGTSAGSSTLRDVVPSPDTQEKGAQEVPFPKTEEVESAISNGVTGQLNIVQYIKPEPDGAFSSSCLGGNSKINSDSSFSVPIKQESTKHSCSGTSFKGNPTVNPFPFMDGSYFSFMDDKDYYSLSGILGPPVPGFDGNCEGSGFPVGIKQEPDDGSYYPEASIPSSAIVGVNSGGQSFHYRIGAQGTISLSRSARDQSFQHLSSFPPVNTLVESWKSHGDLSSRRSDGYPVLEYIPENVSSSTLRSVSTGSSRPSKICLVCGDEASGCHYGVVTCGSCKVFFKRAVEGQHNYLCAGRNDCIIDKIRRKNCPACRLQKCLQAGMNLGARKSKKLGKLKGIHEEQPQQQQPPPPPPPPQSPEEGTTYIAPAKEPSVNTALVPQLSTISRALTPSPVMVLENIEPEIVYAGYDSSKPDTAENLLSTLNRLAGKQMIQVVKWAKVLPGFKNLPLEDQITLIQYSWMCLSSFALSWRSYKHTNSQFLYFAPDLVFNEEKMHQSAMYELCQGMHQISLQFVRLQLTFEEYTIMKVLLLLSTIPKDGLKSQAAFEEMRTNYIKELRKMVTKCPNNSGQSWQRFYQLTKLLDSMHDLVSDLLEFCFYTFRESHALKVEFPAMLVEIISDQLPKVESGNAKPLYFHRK
# Description: Antagonist activity at mineralocorticoid receptor LBD expressed in human HUH7 cells coexpressing GAL4 by luciferase reporter gene assay
# Cytochrome P450 2C9 = Cytochrome P450 2C9 (Homo sapiens, UniProt P11712); test: Inhibition of CYP2C9; format: ADME
# Cytochrome P450 2D6 = Cytochrome P450 2D6 (Homo sapiens, UniProt P10635); test: Inhibition of CYP2D6; format: ADME
# Cytochrome P450 3A4 = Cytochrome P450 3A4 (Homo sapiens, UniProt P08684); test: Inhibition of CYP3A4; format: ADME
# Chain of Cytochrome P450 3A4 (P08684 whole entry): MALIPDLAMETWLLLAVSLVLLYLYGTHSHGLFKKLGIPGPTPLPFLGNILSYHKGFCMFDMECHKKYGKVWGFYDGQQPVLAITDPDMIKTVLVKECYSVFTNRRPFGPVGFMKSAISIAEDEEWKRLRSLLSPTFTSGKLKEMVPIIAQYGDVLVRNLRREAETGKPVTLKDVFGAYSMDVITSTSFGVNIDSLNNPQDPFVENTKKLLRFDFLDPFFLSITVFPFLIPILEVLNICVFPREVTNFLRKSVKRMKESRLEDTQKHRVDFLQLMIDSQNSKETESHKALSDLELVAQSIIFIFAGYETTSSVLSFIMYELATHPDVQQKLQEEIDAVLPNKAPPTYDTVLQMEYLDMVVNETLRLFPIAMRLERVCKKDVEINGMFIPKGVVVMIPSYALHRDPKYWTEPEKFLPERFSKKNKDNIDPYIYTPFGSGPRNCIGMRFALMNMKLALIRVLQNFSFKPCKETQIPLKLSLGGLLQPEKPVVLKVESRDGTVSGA
# Chain of Cytochrome P450 2C9 (P11712 whole entry): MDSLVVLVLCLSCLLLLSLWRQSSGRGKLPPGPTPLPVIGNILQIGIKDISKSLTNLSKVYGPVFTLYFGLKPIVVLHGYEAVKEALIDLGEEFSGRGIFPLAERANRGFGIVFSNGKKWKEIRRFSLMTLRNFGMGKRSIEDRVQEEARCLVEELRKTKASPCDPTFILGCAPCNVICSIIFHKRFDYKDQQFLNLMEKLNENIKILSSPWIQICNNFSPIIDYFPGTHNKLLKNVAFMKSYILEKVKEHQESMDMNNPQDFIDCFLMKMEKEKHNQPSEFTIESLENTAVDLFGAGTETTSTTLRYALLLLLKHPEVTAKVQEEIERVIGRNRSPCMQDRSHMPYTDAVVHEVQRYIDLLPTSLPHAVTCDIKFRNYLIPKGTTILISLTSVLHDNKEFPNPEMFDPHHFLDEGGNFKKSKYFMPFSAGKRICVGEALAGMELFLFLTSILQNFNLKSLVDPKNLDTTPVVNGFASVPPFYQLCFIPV
# Chain of Cytochrome P450 2D6 (P10635 whole entry): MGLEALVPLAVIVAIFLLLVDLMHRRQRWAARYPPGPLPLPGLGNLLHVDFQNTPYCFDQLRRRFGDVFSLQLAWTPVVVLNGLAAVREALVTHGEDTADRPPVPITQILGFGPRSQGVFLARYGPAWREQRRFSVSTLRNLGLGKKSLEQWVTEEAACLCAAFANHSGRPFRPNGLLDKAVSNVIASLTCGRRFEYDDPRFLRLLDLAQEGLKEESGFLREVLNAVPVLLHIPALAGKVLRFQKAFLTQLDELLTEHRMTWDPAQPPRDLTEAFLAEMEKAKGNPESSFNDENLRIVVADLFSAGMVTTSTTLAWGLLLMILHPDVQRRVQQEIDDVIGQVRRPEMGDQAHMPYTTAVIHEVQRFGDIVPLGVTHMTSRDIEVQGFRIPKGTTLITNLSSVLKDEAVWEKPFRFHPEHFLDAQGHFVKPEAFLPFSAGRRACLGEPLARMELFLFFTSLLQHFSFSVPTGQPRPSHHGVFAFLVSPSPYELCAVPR
Structure (SMILES),IC50 [4],also measured
CCCC1=C(C(=O)OC)C(c2ccc(F)cc2Cl)C(C#N)=C(C)N1 (stereo not drawn),16 nM,Stability (Liver microsomes [1]): 4%; solubility [2]: 5 µM; IC50 (Glucocorticoid receptor): 700 nM; Stability (Liver microsomes [3]): 4%; IC50 (Androgen receptor): 100 nM; IC50 (Progesterone receptor): > 10000 nM
COC(=O)C1=C(C(F)(F)F)N(C)C(C)=C(C#N)C1c1ccc(F)cc1Cl (stereo not drawn),275 nM,
CCCC1=C(C(=O)OC)C(c2ccccc2)C(C#N)=C(C)N1 (stereo not drawn),7430 nM,
COC(=O)C1=C(C)NC(C)=C(C(=O)OC(C)(C)C)C1c1ccc(F)cc1 (stereo not drawn),288 nM,
COC(=O)C1=C(C)NC(C)=C(C(=O)OC(C)(C)C)C1c1cccc(OC)c1 (stereo not drawn),888 nM,
COC(=O)C1=C(C)NC(C)=C(C(=O)OC(C)(C)C)C1c1ccc(Cl)cc1 (stereo not drawn),319 nM,
COC(=O)C1=C(C)NC(C)=C(C(=O)OC(C)(C)C)C1c1ccc(C)cc1 (stereo not drawn),12000 nM,
COC(=O)C1=C(C)NC(C)=C(C(=O)OC(C)(C)C)C1c1cccc(C(F)(F)F)c1 (stereo not drawn),702 nM,
COC(=O)C1=C(C)NC(C)=C(C(=O)OC(C)(C)C)C1c1cccc(C#N)c1 (stereo not drawn),3200 nM,
COC(=O)C1=C(Cc2ccccc2)NC(C)=C(C#N)C1c1ccccc1Cl (stereo not drawn),852 nM,
COC(=O)C1=C(C)NC(C)=C(C(=O)OC(C)(C)C)C1c1cccc(C)c1 (stereo not drawn),2790 nM,
COC(=O)C1=C(C)NC(C)=C(C(=O)OC(C)(C)C)C1c1ccc(Cl)c(F)c1 (stereo not drawn),574 nM,
COC(=O)C1=C(C)NC(C)=C(C(=O)OC(C)(C)C)C1c1ccc(O)cc1 (stereo not drawn),2570 nM,
COC(=O)C1=C(C)NC(C)=C(C(=O)OC(C)(C)C)C1c1cccc(F)c1 (stereo not drawn),1390 nM,
COCC1=C(C(=O)OC)C(c2ccccc2Cl)C(C#N)=C(C)N1 (stereo not drawn),655 nM,
COC(=O)C1=C(C)NC(C)=C(C(=O)OC(C)(C)C)C1c1ccc(C(F)(F)F)cc1 (stereo not drawn),309 nM,
COC(=O)C1=C(C(C)C)NC(C)=C(C#N)C1c1ccccc1Cl (stereo not drawn),208 nM,
COC(=O)C1=C(C(F)(F)F)NC(C)=C(C#N)C1c1ccc(F)cc1Cl (stereo not drawn),52 nM,inhibition (INH) (Cytochrome P450 2C9): 72%; Stability (Liver microsomes [1]): 0%; IC50 (Glucocorticoid receptor): 3700 nM; inhibition (INH) (Cytochrome P450 2D6): 6.8%; Stability (Liver microsomes [3]): 6%; inhibition (INH) (Cytochrome P450 3A4): 30%; IC50 (Androgen receptor): 800 nM; IC50 (Progesterone receptor): 7800 nM
CC1=C(C#N)C(c2ccc(F)cc2)C(C(=O)OC(C)(C)C)=C(C)N1 (stereo not drawn),329 nM,

# Reference: ChEMBL document CHEMBL1212896, “Discovery of novel cyanodihydropyridines as potent mineralocorticoid receptor antagonists” (J Med Chem, 2010)
